Reference: patent publication US6080396A, “Anthracycline compound derivative and pharmaceutical preparation containing the same” (Japan Science and Technology Corporation, priority 1995, dated 2000)
Structures can show the parent of a compound that is named as a salt.

Key:
[1] = tested on: mouse Colon 26 adenocarcinoma; experiment: Antitumor activity on mouse Colon 26 adenocarcinoma (Application Example 1); type: in vivo; details: for Tumor-disappeared mice: i.v., every 4th day, three times
Experimental: (§1) When the volume of the tumor reached around 100 mm^3, the block copolymer-drug complex pharmaceutical preparation synthesized in Example 3, 4 or 5 or adriamycin hydrochloride was intravenously administered once a day every 4th day in total of three times (indicated by arrows in the drawings) to examine their antitumor effects. […] Each dose was determined as the amount of adriamycin of the peak 1 of the HPLC chromatogram. The antitumor effects of each drug were estimated based on the tumor growth curve, the number of mice in which the tumor disappeared and the chemotherapeutic index. The results are shown in Tables 1 and 2 and FIGS. 16 and 17.

[2] = LD50 for comparison of chemotherapeutic index (Table 2); details: mouse, in vivo, iv
Experimental: as §1

[3] = Drug concentration in blood plasma by radioactivity (Application Example 2); details: for % of dose/ml (blood plasma): i.v., total of adriamycin and adriamycin dimer, 14C
Experimental: Colon 26 adenocarcinoma cells were transplanted subcutaneously in the subaxillary region of each CDF1 female mouse, to which the block copolymer-drug complex pharmaceutical preparation prepared in Example 6 or 7 or ^14 C-labeled adriamycin hydrochloride was intravenously administered 12 days after transplanting. Each drug was used by diluting it in physiological saline prior to its use. After 15 minutes and 1, 4, 24 and 48 hours of the administration, blood samples were collected and various organs were excised. The drug concentrations in the blood plasma and each internal organ were determined by measuring radioactivity thereof using a liquid scintillation counter. In this test, both adriamycin and adriamycin dimer are labeled with ^14 C.

[4] = Drug concentration in tumor by radioactivity (Application Example 2); type: in vivo, CDF1 female mouse; details: mouse, iv, i.v., total of adriamycin and adriamycin dimer, 14C, read-out: % of dose/g (tumor)
[5] = Drug concentration in heart by radioactivity (Application Example 2); type: in vivo, CDF1 female mouse; details: mouse, iv, i.v., total of adriamycin and adriamycin dimer, 14C, read-out: % of dose/g (heart)
[6] = tested on: mouse Colon 26 adenocarcinoma; experiment: Antitumor activity on mouse Colon 26 adenocarcinoma (Application Example 3); type: in vivo; details: i.v., every 4th day, three times
Experimental: In the case of the pharmaceutical preparation of Example 8, its effect obtained from the only first administration was also examined. […] Each dose was determined as the amount of adriamycin of the peak 1 of the HPLC chromatogram. The antitumor effects of each drug were estimated based on the tumor growth curve and the number of mice in which the tumor disappeared. The results are shown in Table 6 and FIGS. 25, 26 and 27.

Question: Which Tumor-disappeared mice ([1]; 5 mg/kg) does the source give for `COc1cccc2c1C(=O)c1c(O)c3c(c(O)c1C2=O)C[C@@](O)(C(=O)CO)C[C@@H]3O[C@H]1C[C@H](N)[C@H](O)[C@H](C)O1` [Adriamycin hydrochloride, adriamycin hydrochloride] here?
Answer: 0/5

Question: What about the Tumor-disappeared mice ([1]; 10 mg/kg) of the same compound?
Answer: 2/5

Question: What about the “Min T/C42 (minimum dose when T/C (%) becomes 42% or less on the 14th day after the initial administration)” value ([1]; 14th day after initial administration) of the same compound?
Answer: 5.95

Question: And the “C. index (chemotherapeutic index: LD50/(Min T/C42))” value ([1]; LD50 /(Min T/C42))?
Answer: 2.52

Question: What about the LD50 [2] of the same compound?
Answer: 15 mg/kg

Question: What about the “% of dose/ml (blood plasma)” value ([3]; 15 minutes) of the same compound?
Answer: 0.47 % of dose/ml

Question: What about the “% of dose/ml (blood plasma)” value ([3]; 1 hour) of the same compound?
Answer: 0.29 % of dose/ml

Question: What about the “% of dose/ml (blood plasma)” value ([3]; 4 hours) of the same compound?
Answer: 0.36 % of dose/ml

Question: What about the “% of dose/ml (blood plasma)” value ([3]; 24 hours) of the same compound?
Answer: 0.10 % of dose/ml

Question: And the “% of dose/ml (blood plasma)” value ([3]; 48 hours)?
Answer: 0.07 % of dose/ml

Question: And the “drug retention in blood plasma” value ([3]; mouse, in vivo)?
Answer: quickly disappeared from blood plasma

Question: And the tissue uptake at 0.25 h ([4]; 15 minutes)?
Answer: 2.3 %ID/g

Question: And the tissue uptake at 1 h ([4]; 1 hour)?
Answer: 2.4 %ID/g

Question: And the tissue uptake at 4 h ([4]; 4 hours)?
Answer: 1.7 %ID/g

Question: What about the tissue uptake at 24 h ([4]; 24 hours) of the same compound?
Answer: 1.3 %ID/g

Question: And the tissue uptake at 48 h ([4]; 48 hours)?
Answer: 1 %ID/g

Question: What about the tissue uptake at 0.25 h ([5]; 15 minutes) of the same compound?
Answer: 10.5 %ID/g

Question: What about the tissue uptake at 1 h ([5]; 1 hour) of the same compound?
Answer: 7 %ID/g

Question: And the tissue uptake at 4 h ([5]; 4 hours)?
Answer: 4.6 %ID/g

Question: And the tissue uptake at 24 h ([5]; 24 hours)?
Answer: 1.1 %ID/g

Question: What about the tissue uptake at 48 h ([5]; 48 hours) of the same compound?
Answer: 0.5 %ID/g

Question: And the Tumor-disappeared mice ([6]; 5 mg/kg)?
Answer: 0/5

Question: And the Tumor-disappeared mice ([6]; 10 mg/kg)?
Answer: 2/5
